Data: patent publication US9301963B2, “Treatment tool and method of gradual withdrawal from bezodiazepine dependency” (priority 2011, dated 2016)

What was measured:
[1] = Solvent / liquid delivery medium in which the benzo is soluble
[2] = tested on: benzodiazepine-dependent patient; assay: Gradual liquid micro-taper withdrawal from benzodiazepine dependency in patients; conditions: for daily dosage at which withdrawal symptoms once again emerge during the taper: patients tapered at the found daily reduction rate, typical value
[3] = tested on: CYP 450 enzymes; conditions: cited from earlier work
[4] = tested on: benzodiazepine-dependent patient; assay: Step taper method (comparison, FIG. 3); conditions: step taper abruptly halted at 0.5 mg

Cc1nnc2n1-c1ccc(Cl)cc1C(c1ccccc1)=NC2 [Alprazolam]
correct solvent [1]: ethanol

CNC1=Nc2ccc(Cl)cc2C(c2ccccc2)=[N+]([O-])C1 [Chlordiazepoxide]
daily dosage at which withdrawal symptoms once again emerge during the taper [2]: ~12.5 mg

O=C1CN=C(c2ccccc2Cl)c2cc([N+](=O)[O-])ccc2N1 [Clonazepam]
half-life [3]: relatively long half-life | metabolites [3]: no active metabolites | suitability of fat/water emulsion as liquid in which the benzo is soluble ([1]; 4% fat homogenized milk): suitable | daily dosage at which withdrawal symptoms once again emerge during the taper [2]: ~0.25 mg

CN1C(=O)CN=C(c2ccccc2)c2cc(Cl)ccc21 [Diazepam]
post withdrawal syndrome after step taper [4]: causes the feared post withdrawal syndrome | amount of ethanol to create a useable solution ([1]; ethanol): about 0.19 mL ethanol per 1.0 mg | daily dosage cut that is often the limit ([2]; daily reduction, increased gradually from 0.05 mg): 0.1 mg | post withdrawal syndrome after taper ([2]; method of the patent, line 310, taper to zero milligrams): eliminates the post withdrawal syndrome | symptom escalation during taper (FIG. 3) ([2]; patient on 14.0 mg starting dose, method of the patent, line 310): no symptom escalation from dosage reduction | daily dosage at which withdrawal symptoms once again emerge during the taper [2]: ~5.0 mg

O=C1Nc2ccc(Cl)cc2C(c2ccccc2Cl)=NC1O (centres unmarked) [Lorazepam]
metabolism by CYP 450 enzyme pathways [3]: not metabolized by the CYP 450 enzyme pathways

O=C1Nc2ccc(Cl)cc2C(c2ccccc2)=NC1O (centres unmarked) [Oxazepam]
metabolism by CYP 450 enzyme pathways [3]: not metabolized by the CYP 450 enzyme pathways
